Columns and labels:
human SST-R1 = target: T1, human SST-R1 (Homo sapiens, UniProt P30872); assay: Inhibition of 125I-Tyr11-SRIF binding to cloned human SST-R1 membranes; conditions: human cloned receptor; read-out: Concentration (nM) of SST analogs to inhibit SRIF binding by 50%, SST-R 1
T1 construct: expressed in transfected cells; host or cells: CHO cells
Experimental: (§1) The SST analogs were tested for their potency in inhibition of the binding of ^125I-Tyr^11-SRIF (based on the method described by Raynor et. al., Molecular Pharmacology 43: 838, 1993) to membrane preparations expressing the transmembranal SST receptors (SST-R1, 2, 3, 4 or 5). The receptor preparations used for these tests were either from the cloned human receptors selectively and stably expressed in Chinese Hamster Ovary (CHO) cells or from cell lines naturally expressing the SST-Rs. […] The binding reactions were filtered, the filters were washed and the bound radioactivity was counted in β counter after addition of scintillation solution.

human SST-R4 = target: T2, human SST-R4 (Homo sapiens, UniProt P31391); assay: Inhibition of 125I-Tyr11-SRIF binding to cloned human SST-R4 membranes; conditions: human cloned receptor; read-out: Concentration (nM) of SST analogs to inhibit SRIF binding by 50%, SST-R 4
T2 construct: expressed in transfected cells; host or cells: CHO cells
T2 sequence (P31391 whole entry): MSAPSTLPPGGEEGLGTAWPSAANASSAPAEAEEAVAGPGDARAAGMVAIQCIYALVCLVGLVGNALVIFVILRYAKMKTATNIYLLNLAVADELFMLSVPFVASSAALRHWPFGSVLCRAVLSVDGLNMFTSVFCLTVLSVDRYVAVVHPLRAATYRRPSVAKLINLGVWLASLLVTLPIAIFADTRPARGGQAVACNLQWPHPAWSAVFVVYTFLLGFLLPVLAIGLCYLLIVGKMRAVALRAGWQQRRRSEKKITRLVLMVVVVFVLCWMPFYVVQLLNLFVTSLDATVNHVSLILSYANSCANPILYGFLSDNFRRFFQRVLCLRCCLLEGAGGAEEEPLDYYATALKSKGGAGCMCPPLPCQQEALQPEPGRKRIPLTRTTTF
Experimental: as §1

human cloned SST-R2 = target: T3, human cloned SST-R2 (Homo sapiens, UniProt P30874); assay: Inhibition of 125I-Tyr11-SRIF binding to cloned human SST-R2 membranes (CHO cells); conditions: human cloned receptor; read-out: Concentration (nM) of SST analogs to inhibit SRIF binding by 50%, SST-R 2
T3 construct: expressed in transfected cells; host or cells: CHO cells
T3 sequence (P30874 whole entry): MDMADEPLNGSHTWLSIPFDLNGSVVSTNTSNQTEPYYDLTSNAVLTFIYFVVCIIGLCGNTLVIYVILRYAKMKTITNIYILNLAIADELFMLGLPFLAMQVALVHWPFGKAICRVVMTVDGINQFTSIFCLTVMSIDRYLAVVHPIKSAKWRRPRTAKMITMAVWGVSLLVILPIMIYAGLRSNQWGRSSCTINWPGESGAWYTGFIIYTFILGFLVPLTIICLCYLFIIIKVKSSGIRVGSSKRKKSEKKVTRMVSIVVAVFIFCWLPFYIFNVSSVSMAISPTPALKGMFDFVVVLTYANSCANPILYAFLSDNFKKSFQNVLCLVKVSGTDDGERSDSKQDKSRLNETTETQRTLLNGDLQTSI
Experimental: as §1

human SST-R5 = target: T4, human SST-R5 (Homo sapiens, UniProt P35346); assay: Inhibition of 125I-Tyr11-SRIF binding to cloned human SST-R5 membranes; conditions: human cloned receptor; read-out: Concentration (nM) of SST analogs to inhibit SRIF binding by 50%, SST-R 5
T4 construct: expressed in transfected cells; host or cells: CHO cells
T4 sequence (P35346 whole entry): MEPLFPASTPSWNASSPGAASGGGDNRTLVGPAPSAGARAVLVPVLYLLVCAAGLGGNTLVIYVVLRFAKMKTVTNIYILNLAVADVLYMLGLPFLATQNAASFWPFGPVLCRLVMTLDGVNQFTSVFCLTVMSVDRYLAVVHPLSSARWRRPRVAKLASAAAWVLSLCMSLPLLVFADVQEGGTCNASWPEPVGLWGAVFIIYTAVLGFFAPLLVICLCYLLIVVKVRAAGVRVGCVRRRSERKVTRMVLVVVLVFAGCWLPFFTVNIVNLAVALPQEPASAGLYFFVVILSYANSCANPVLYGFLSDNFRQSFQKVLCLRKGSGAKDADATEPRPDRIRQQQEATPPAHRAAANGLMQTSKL
Experimental: as §1

human SST-R3 = target: T5, human SST-R3 (Homo sapiens, UniProt P32745); assay: Inhibition of 125I-Tyr11-SRIF binding to cloned human SST-R3 membranes; conditions: human cloned receptor; read-out: Concentration (nM) of SST analogs to inhibit SRIF binding by 50%, SST-R 3
T5 construct: expressed in transfected cells; host or cells: CHO cells
T5 sequence (P32745 whole entry): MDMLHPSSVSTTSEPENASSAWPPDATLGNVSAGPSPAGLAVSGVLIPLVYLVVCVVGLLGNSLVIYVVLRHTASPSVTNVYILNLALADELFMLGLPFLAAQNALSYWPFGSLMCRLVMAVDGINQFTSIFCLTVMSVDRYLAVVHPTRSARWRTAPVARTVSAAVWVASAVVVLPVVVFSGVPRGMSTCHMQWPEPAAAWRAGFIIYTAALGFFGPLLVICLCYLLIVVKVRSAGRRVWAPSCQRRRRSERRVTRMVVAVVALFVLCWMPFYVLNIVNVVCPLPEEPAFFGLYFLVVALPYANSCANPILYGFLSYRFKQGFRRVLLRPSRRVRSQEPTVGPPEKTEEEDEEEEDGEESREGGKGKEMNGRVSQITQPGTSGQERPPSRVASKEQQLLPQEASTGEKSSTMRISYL
Experimental: as §1

T1 sequence (P30872 whole entry): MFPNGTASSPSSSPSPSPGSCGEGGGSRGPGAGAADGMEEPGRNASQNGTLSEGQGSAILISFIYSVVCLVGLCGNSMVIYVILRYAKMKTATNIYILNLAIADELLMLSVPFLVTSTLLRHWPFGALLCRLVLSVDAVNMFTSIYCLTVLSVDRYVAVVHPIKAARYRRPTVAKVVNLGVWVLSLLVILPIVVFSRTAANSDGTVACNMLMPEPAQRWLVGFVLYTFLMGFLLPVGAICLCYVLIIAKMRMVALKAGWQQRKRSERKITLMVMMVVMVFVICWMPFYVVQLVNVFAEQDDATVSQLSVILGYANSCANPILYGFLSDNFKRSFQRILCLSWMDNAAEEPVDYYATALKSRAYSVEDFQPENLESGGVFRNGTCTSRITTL

`C[C@@H](O)[C@@H]1NC(=O)[C@H](CCCCN)NC(=O)[C@@H](Cc2c[nH]c3ccccc23)NC(=O)[C@H](Cc2ccccc2)NC(=O)[C@@H]2CSSC[C@H](NC1=O)C(=O)N([C@@H](Cc1ccccc1)C(N)=O)CCCNC(=O)CCCN[C@@H](Cc1ccccc1)C(=O)N2` [PTR 3205, PheC3-Cys-Phe-(D)Trp-Lys-Thr-Cys-PheN3-NH2] showed an IC50 (human SST-R1) of 349 nM, an IC50 (human SST-R4) of 123 nM and an IC50 (human cloned SST-R2) of 1.5 nM. For the same compound, the IC50 (human SST-R5) was 186 nM and the IC50 (human SST-R3) was 323 nM.

From patent US20040102364A1, “Backbone cyclized radiolabelled somatostatin analogs” (priority 2001, published 2004)
